Data reported in patent US7557100B2, “Antibacterial agents” (Pfizer Inc., priority 2005, dated 2009).
In brackets after ≈: the same amount, converted by molar mass.

Legend:
H. influenzae HI-3542 = experiment: Microbroth dilution MIC testing against H. influenzae; format: cell-based; details: HI3542, H. influenzae 3542, Haemophilus Test Medium, 35° C., 16 to 24 hours, read-out: Minimum Inhibitory Concentration H. influenzae 3542
Method: (§1) In this example, the in vitro antibacterial activity of selected compounds was determined against S. aureus and H. influenzae. Except for clarifying or modifying statements, MIC testing followed procedures recommended by the NCCLS^1-2 or followed the descriptions cited below.
(§2) Bacterial Cultures At least the following organisms are included in the screen: Staphylococcus aureus SA-1 (UC-76) and H. influenzae HI-3542. Incubations were at 35° C. Stock bacterial cultures were maintained on Tryptic Soy Agar containing 5% Sheep Blood (BD, Becton Dickinson Microbiology Systems, Cockeysville, Md.), anaerobes were maintained on Anaerobic Blood Agar plates—CDC Formulation (BD), and fastidious organisms were maintained on Chocolate Agar II Plates (BD). Specific conditions of handling are listed below.
Haemophilus was maintained on Chocolate Agar II Plates at room temperature in a candle jar providing a 3 5% CO2 atmosphere.
(§3) Standardized Organism Inocula Frozen stock cultures were used as the initial source of organisms for performing microbroth dilution MIC testing. Stock cultures were passed on their standard growth medium for at least 1 growth cycle (18 24 hours) prior to their use.
(§4) Most bacteria, unless otherwise noted, were prepared directly from agar plates in 10 mL aliquots of the appropriate broth medium. Bacterial cultures were adjusted to the opacity of a 0.5 McFarland Standard (optical density value of 0.28-0.33 on a Perkin-Elmer Lambda EZ150 Spectrophotometer Wellesley, Mass., set at a wavelength of 600 nm).). The adjusted cultures were diluted 400 fold (0.25 mL inoculum+100 mL broth) in growth media to produce a starting suspension of approximately 5×10^5 colony forming units (CFU)/mL. Unless otherwise noted, bacterial strains were tested in cation adjusted Mueller Hinton Broth (CAMHB).
Haemophilus influenzae strains were grown on Chocolate Agar II Plates and tested in Haemophilus Test Medium (Remel, Lenexa, Kans.).
(§5) Test Compound (“Drug”) Preparation Compounds were solubilized in DMSO. Drug stock solutions were prepared on the day of testing. Drugs were weight corrected for assay content where necessary.
(§6) Drug Dilution Tray Preparation Microbroth dilution stock plates were prepared in two dilution series, 64 to 0.06 μg drug/mL and 0.25 to 0.00025 μg drug/mL. For the high concentration series, 200 μL of stock solution (2 mg/mL) was added to duplicate rows of a 96-well microtiter plate. This was used as the first well in the dilution series. Serial two-fold decremental dilutions were made using a BioMek FX robot (Beckman Coulter Inc., Fullerton, Calif.) with 10 of the remaining 11 wells, each of which contained 100 μL of the appropriate solvent/diluent. Row 12 contained solvent/diluent only and served as the control. For tube one of the low concentration series, 200 μL of an 8 μg/mL stock was added to duplicate rows of a 96-well plate. Serial two-fold dilutions were made as described above.
(§7) Daughter plates were spotted (3.2 μL/well) from the stock plates listed above using the BioMek FX robot and were either used immediately or frozen at −70° C. until use.
(§8) Plate Inoculation Aerobic organisms were inoculated (100 μL volumes) into the thawed plates using the BioMek FX robot. The inoculated plates were placed in stacks of no more than 5 and covered with an empty plate. These plates were incubated 16 to 24 hours in ambient atmosphere according to CLSI guidelines^2.
Reading the Test After inoculation and incubation, the degree of bacterial growth was estimated visually with the aid of a Test Reading Mirror (Dynex Technologies 220 16) in a darkened room with a single light shining directly through the top of the microbroth tray. The MIC was the lowest concentration of drug that prevented macroscopically visible growth under the conditions of the test. Testing was performed in duplicate. When the MIC values in duplicate tests varied by 1 well (2 fold), the lower values were reported. If the MICs varied by 2 dilutions, the middle value was reported. […]

[1] = tested on: Staphylococcus aureus SA-1 (UC-76); experiment: Microbroth dilution MIC testing against S. aureus; format: cell-based; details: S. aureus UC76, CAMHB, 35° C., 16 to 24 hours, read-out: Minimum Inhibitory Concentration S. aureus UC76
Method: as §1, §2, §3, §4, §5, §6, §7, §8
Reading the Test After inoculation and incubation, the degree of bacterial growth was estimated visually with the aid of a Test Reading Mirror (Dynex Technologies 220 16) in a darkened room with a single light shining directly through the top of the microbroth tray. The MIC was the lowest concentration of drug that prevented macroscopically visible growth under the conditions of the test. Testing was performed in duplicate. When the MIC values in duplicate tests varied by 1 well (2 fold), the lower values were reported. If the MICs varied by 2 dilutions, the middle value was reported. Greater than this 4 fold variance called for the test to be repeated, after which a similar determination was applied to all values.

Structure (SMILES) | MIC (H. influenzae HI-3542) [µg/mL] | MIC [1] [µg/mL]
CCOc1cnc(-c2cc3c(c(F)c2F)N2C[C@@H](C)O[C@@H](C)[C@@H]2C2(C3)C(=O)NC(=O)NC2=O)cn1 [Compound 26, (2R,4S,4aS)-8-(5-ethoxypyrazin-2-yl)-9,10-difluoro-2,4-dimethyl-1,2,4,4a-tetrahydro-2′H,6H-spiro[1,4-oxazino[4,3-a]quinoline-5,5′-pyrimidine]-2′,4′,6′(1′H,3′H)-trione] | 1 (≈ 2.05 µM) | 0.25 (≈ 0.513 µM)
C[C@@H]1CN2c3c(cc(-c4c[n+]([O-])ccn4)c(F)c3F)CC3(C(=O)NC(=O)NC3=O)[C@H]2[C@H](C)O1 [Compound 6, (2R,4S,4aS)-9,10-difluoro-2,4-dimethyl-8-(4-oxidopyrazinpyrazin-2-yl)-1,2,4,4a-tetrahydro-2′H,6H-spiro[1,4-oxazino[4,3-a]quinoline-5,5′-pyrimidine]-2′,4′,6′(1′H,3′H)-trione] | 0.25 (≈ 0.544 µM) | 0.5 (≈ 1.09 µM)
